Legend:
[1] = system: MCF7 cells; experiment: Anti-proliferation (viability) of MCF7 cells (Table 7, FIG. 2B); assay type: cell-based; conditions: Homo sapiens, MCF7, MCF7 cells, 3-6 days, 10-point serial dilution; read-out: GI IC50 in MCF-7
[2] = target: CDK4 (Homo sapiens, UniProt P11802+Q16531); experiment: HiBiT detection of HiBiT-tagged CDK4 protein level in MCF7 cells, 16 hours (Table 8); assay type: cell-based; parameters: expressed in transfected cells; host or cells: MCF7; conditions: MCF7 cells stably expressing HiBiT tagged target proteins; for activity at 0.01 µM: 10 nM, read-out: % CDK4 Relative Level (10 nM); for activity at 0.1 µM: 100 nM, read-out: % CDK4 Relative Level (100 nM)
Chain of CDK4 (P11802 whole entry): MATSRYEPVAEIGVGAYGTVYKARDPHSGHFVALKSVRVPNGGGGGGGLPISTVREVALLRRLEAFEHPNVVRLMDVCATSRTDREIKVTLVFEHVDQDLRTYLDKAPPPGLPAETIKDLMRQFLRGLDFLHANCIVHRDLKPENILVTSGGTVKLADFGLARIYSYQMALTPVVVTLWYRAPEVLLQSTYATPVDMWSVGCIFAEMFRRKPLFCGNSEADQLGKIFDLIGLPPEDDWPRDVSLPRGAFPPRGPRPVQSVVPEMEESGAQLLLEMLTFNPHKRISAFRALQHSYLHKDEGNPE
Chain of CDK4 (P24385 whole entry partner): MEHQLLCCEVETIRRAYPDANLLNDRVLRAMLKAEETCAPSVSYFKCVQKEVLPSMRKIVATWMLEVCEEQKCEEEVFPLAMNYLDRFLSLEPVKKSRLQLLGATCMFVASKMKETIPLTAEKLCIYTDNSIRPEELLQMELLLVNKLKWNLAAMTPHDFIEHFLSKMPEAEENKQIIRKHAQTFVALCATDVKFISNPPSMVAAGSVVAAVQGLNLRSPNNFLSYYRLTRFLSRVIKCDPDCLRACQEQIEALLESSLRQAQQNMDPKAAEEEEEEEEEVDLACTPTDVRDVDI
Chain of CDK4 (Q16531 2-1140 limits assumed): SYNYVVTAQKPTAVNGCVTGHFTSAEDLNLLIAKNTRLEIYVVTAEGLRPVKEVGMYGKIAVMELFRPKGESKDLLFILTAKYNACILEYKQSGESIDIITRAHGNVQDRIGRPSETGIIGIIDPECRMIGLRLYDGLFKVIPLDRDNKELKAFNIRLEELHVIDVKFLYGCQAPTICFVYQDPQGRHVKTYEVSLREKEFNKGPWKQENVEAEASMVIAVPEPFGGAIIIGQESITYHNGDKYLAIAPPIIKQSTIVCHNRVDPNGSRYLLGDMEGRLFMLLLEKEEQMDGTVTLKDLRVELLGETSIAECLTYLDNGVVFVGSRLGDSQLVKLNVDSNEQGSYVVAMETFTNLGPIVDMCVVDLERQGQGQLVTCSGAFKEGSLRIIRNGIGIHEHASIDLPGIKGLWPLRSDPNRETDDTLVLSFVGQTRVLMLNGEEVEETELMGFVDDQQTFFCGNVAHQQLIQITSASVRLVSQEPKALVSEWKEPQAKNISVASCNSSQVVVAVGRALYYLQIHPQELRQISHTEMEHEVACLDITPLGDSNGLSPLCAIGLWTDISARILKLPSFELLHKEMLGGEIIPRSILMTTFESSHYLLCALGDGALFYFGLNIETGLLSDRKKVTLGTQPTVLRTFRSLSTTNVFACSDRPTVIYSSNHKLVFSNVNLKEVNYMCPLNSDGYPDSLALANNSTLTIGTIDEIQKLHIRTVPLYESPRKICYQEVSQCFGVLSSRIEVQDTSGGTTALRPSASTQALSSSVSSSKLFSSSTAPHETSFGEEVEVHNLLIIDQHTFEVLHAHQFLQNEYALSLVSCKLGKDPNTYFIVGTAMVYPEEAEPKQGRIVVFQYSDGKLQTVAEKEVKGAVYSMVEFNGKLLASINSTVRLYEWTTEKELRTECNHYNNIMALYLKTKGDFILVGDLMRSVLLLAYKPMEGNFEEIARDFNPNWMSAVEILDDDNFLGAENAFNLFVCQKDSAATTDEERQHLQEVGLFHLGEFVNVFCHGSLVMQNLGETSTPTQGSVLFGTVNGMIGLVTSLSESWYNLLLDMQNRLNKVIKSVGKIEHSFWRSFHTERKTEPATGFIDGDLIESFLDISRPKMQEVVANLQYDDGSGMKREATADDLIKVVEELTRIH
Experimental: HiBiT detection system quantitatively measures total amounts of HiBiT-tagged proteins using a luminescent based method. MCF7 cells stably expressing HiBiT tagged target proteins were treated with heterobifunctional compounds at indicated concentrations for 16 hours, then lysed with Nano-Glo HiBiT Lytic detection reagents.

SMILES | IC50 [1] [nM] | activity at 0.01 µM [2] [%] | activity at 0.1 µM [2] [%]
CC(=O)c1c(C)c2cnc(Nc3ccc(CN4CCC(N(C)C(=O)C5CC6(CC(Nc7nc(NC(C)C)ccc7C(=O)Nc7ccc(N(C)C)nn7)C6)C5)CC4)cn3)nc2n(C2CCCC2)c1=O (stereo not drawn) [CPD-595, 2-((6-((1-((6-((6-acetyl-8-cyclopentyl-5-methyl-7-oxo-7,8-dihydropyrido[2,3-d]pyrimidin-2-yl)amino)pyridin-3-yl)methyl)piperidin-4-yl)(methyl)carbamoyl)spiro[3.3]heptan-2-yl)amino)-N-(6-(dimethylamino)pyridazin-3-yl)-6-(isopropylamino)nicotinamide] | < 50 | > 85 | 55 to 85
CC(=O)c1c(C)c2cnc(Nc3ccc(CN4CCC(CC(=O)NC5CC6(C5)CC(Nc5nc(NC(C)C)ccc5C(=O)Nc5ccc(N(C)C)nn5)C6)C4)cn3)nc2n(C2CCCC2)c1=O (stereo not drawn) [CPD-596, 2-((6-(2-(1-((6-((6-acetyl-8-cyclopentyl-5-methyl-7-oxo-7,8-dihydropyrido[2,3-d]pyrimidin-2-yl)amino)pyridin-3-yl)methyl)pyrrolidin-3-yl)acetamido)spiro[3.3]heptan-2-yl)amino)-N-(6-(dimethylamino)pyridazin-3-yl)-6-(isopropylamino)nicotinamide] | > 100 | 55 to 85 | > 85
CCc1ccc(C(=O)Nc2ccc(N(C)C)nn2)c(N[C@H]2CC[C@H](C(=O)N3CCC(N4CCN(C5CCC(Nc6ncc7c(C)c(C(C)=O)c(=O)n(C8CCCC8)c7n6)CC5)CC4)C3)CC2)n1 (stereo partly drawn) [CPD-597, 2-((trans-4-(3-(4-(4-((6-acetyl-8-cyclopentyl-5-methyl-7-oxo-7,8-dihydropyrido[2,3-d]pyrimidin-2-yl)amino)cyclohexyl)piperazin-1-yl)pyrrolidine-1-carbonyl)cyclohexyl)amino)-N-(6-(dimethylamino)pyridazin-3-yl)-6-ethylnicotinamide] | < 50 | > 85 | 55 to 85
CC(=O)c1c(C)c2cnc(Nc3ccc(CC4CCN(CC(=O)NC5CC6(C5)CC(Nc5nc(NC(C)C)ccc5C(=O)Nc5ccc(N(C)C)nn5)C6)CC4)cn3)nc2n(C2CCCC2)c1=O (stereo not drawn) [CPD-599, 2-((6-(2-(4-((6-((6-acetyl-8-cyclopentyl-5-methyl-7-oxo-7,8-dihydropyrido[2,3-d]pyrimidin-2-yl)amino)pyridin-3-yl)methyl)piperidin-1-yl)acetamido)spiro[3.3]heptan-2-yl)amino)-N-(6-(dimethylamino)pyridazin-3-yl)-6-(isopropylamino)nicotinamide] | < 50 | 55 to 85 | 55 to 85
CNc1ccc(C(=O)Nc2ccc(N(C)C)nn2)c(NCCC(=O)N2CCN(Cc3ccc(Nc4ncc(F)c(-c5cc(F)c6nc(C)n(C(C)C)c6c5)n4)nc3)CC2)n1 [CPD-600, N-(6-(dimethylamino)pyridazin-3-yl)-2-((3-(4-((6-((5-fluoro-4-(4-fluoro-1-isopropyl-2-methyl-1H-benzo[d]imidazol-6-yl)pyrimidin-2-yl)amino)pyridin-3-yl)methyl)piperazin-1-yl)-3-oxopropyl)amino)-6-(methylamino)nicotinamide] | > 100 | 55 to 85 | 55 to 85
CNc1ccc(C(=O)Nc2ccc(N(C)C)nn2)c(NCCCC(=O)N2CCN(Cc3ccc(Nc4ncc(F)c(-c5cc(F)c6nc(C)n(C(C)C)c6c5)n4)nc3)CC2)n1 [CPD-601, N-(6-(dimethylamino)pyridazin-3-yl)-2-((4-(4-((6-((5-fluoro-4-(4-fluoro-1-isopropyl-2-methyl-1H-benzo[d]imidazol-6-yl)pyrimidin-2-yl)amino)pyridin-3-yl)methyl)piperazin-1-yl)-4-oxobutyl)amino)-6-(methylamino)nicotinamide] | > 100 | 55 to 85 | 55 to 85
CNc1ccc(C(=O)Nc2ccc(N(C)C)nn2)c(NCCCCC(=O)N2CCN(Cc3ccc(Nc4ncc(F)c(-c5cc(F)c6nc(C)n(C(C)C)c6c5)n4)nc3)CC2)n1 [CPD-602, N-(6-(dimethylamino)pyridazin-3-yl)-2-((5-(4-((6-((5-fluoro-4-(4-fluoro-1-isopropyl-2-methyl-1H-benzo[d]imidazol-6-yl)pyrimidin-2-yl)amino)pyridin-3-yl)methyl)piperazin-1-yl)-5-oxopentyl)amino)-6-(methylamino)nicotinamide] | > 100 | 55 to 85 | 55 to 85

The next lines start with the values.

IC50 [1] [nM] | activity at 0.01 µM [2] [%] | activity at 0.1 µM [2] [%] | SMILES
< 50 | 55 to 85 | 55 to 85 | CC(=O)c1c(C)c2cnc(Nc3ccc(CN4CCN(CC(=O)NC5CC6(C5)CC(Nc5nc(NC(C)C)ccc5C(=O)Nc5cc7n(n5)CCC7)C6)CC4)cn3)nc2n(C2CCCC2)c1=O (stereo not drawn) [CPD-584, 2-((6-(2-(4-((6-((6-acetyl-8-cyclopentyl-5-methyl-7-oxo-7,8-dihydropyrido[2,3-d]pyrimidin-2-yl)amino)pyridin-3-yl)methyl)piperazin-1-yl)acetamido)spiro[3.3]heptan-2-yl)amino)-N-(5,6-dihydro-4H-pyrrolo[1,2-b]pyrazol-2-yl)-6-(isopropylamino) nicotinamide]
< 50 | 55 to 85 | 55 to 85 | CC(=O)c1c(C)c2cnc(Nc3ccc(CN4CCN(C(C)C(=O)NC5CC6(C5)CC(Nc5nc(NC(C)C)ccc5C(=O)Nc5ccc(N(C)C)nn5)C6)CC4)cn3)nc2n(C2CCCC2)c1=O (stereo not drawn) [CPD-585, 2-((6-(2-(4-((6-((6-acetyl-8-cyclopentyl-5-methyl-7-oxo-7,8-dihydropyrido[2,3-d]pyrimidin-2-yl)amino)pyridin-3-yl)methyl)piperazin-1-yl)propanamido)spiro[3.3]heptan-2-yl)amino)-N-(6-(dimethylamino)pyridazin-3-yl)-6-(isopropylamino)nicotinamide]
< 50 | 55 to 85 | 55 to 85 | CC(=O)c1c(C)c2cnc(Nc3ccc(C(C)N4CCN(CC(=O)NC5CC6(C5)CC(Nc5nc(NC(C)C)ccc5C(=O)Nc5ccc(N(C)C)nn5)C6)CC4)cn3)nc2n(C2CCCC2)c1=O (stereo not drawn) [CPD-586, 2-((6-(2-(4-(1-(6-((6-acetyl-8-cyclopentyl-5-methyl-7-oxo-7,8-dihydropyrido[2,3-d]pyrimidin-2-yl)amino)pyridin-3-yl)ethyl)piperazin-1-yl)acetamido)spiro[3.3]heptan-2-yl)amino)-N-(6-(dimethylamino)pyridazin-3-yl)-6-(isopropylamino)nicotinamide]
< 50 | 55 to 85 | 55 to 85 | CC(=O)c1c(C)c2cnc(Nc3ccc(N4CCN(C5CCN(C(=O)C67CC(Nc8nc(NC(C)C)ccc8C(=O)Nc8cc(C)n(C)n8)(C6)C7)C5)CC4)cn3)nc2n(C2CCCC2)c1=O (stereo not drawn) [CPD-587, 2-((3-(3-(4-(6-((6-acetyl-8-cyclopentyl-5-methyl-7-oxo-7,8-dihydropyrido[2,3-d]pyrimidin-2-yl)amino)pyridin-3-yl)piperazin-1-yl)pyrrolidine-1-carbonyl)bicyclo[1.1.1]pentan-1-yl)amino)-N-(1,5-dimethyl-1H-pyrazol-3-yl)-6-(isopropylamino)nicotinamide]
< 50 | 55 to 85 | 55 to 85 | CC(=O)c1c(C)c2cnc(Nc3ccc(N4CCN(C5CCN(C(=O)C67CC(Nc8nc(NC(C)C)ccc8C(=O)Nc8cn(C)c(C9CC9)n8)(C6)C7)C5)CC4)cn3)nc2n(C2CCCC2)c1=O (stereo not drawn) [CPD-588, 2-((3-(3-(4-(6-((6-acetyl-8-cyclopentyl-5-methyl-7-oxo-7,8-dihydropyrido[2,3-d]pyrimidin-2-yl)amino)pyridin-3-yl)piperazin-1-yl)pyrrolidine-1-carbonyl)bicyclo[1.1.1]pentan-1-yl)amino)-N-(2-cyclopropyl-1-methyl-1H-imidazol-4-yl)-6-(isopropylamino)nicotinamide]
< 50 | 55 to 85 | 55 to 85 | CC(=O)c1c(C)c2cnc(Nc3ccc(N4CCN(C5CCN(C(=O)C67CC(Nc8nc(C)ccc8C(=O)Nc8ccc(N(C)C)nn8)(C6)C7)C5)CC4)cn3)nc2n(C2CCCC2)c1=O (stereo not drawn) [CPD-590, 2-((3-(3-(4-(6-((6-acetyl-8-cyclopentyl-5-methyl-7-oxo-7,8-dihydropyrido[2,3-d]pyrimidin-2-yl)amino)pyridin-3-yl)piperazin-1-yl)pyrrolidine-1-carbonyl)bicyclo[1.1.1]pentan-1-yl)amino)-N-(6-(dimethylamino)pyridazin-3-yl)-6-methylnicotinamide]
< 50 | 55 to 85 | 55 to 85 | CC(=O)c1c(C)c2cnc(Nc3ccc(N4CCN(C5CCN(C(=O)C67CC(Nc8nc(NC(C)C)ccc8C(=O)Nc8cc(C)on8)(C6)C7)C5)CC4)cn3)nc2n(C2CCCC2)c1=O (stereo not drawn) [CPD-591, 2-((3-(3-(4-(6-((6-acetyl-8-cyclopentyl-5-methyl-7-oxo-7,8-dihydropyrido[2,3-d]pyrimidin-2-yl)amino)pyridin-3-yl)piperazin-1-yl)pyrrolidine-1-carbonyl)bicyclo[1.1.1]pentan-1-yl)amino)-6-(isopropylamino)-N-(5-methylisoxazol-3-yl)nicotinamide]
< 50 | 55 to 85 | 55 to 85 | CC(=O)c1c(C)c2cnc(Nc3ccc(CN4CCN(CC(=O)N(C)C5CC6(CC(Nc7nc(NC(C)C)ccc7C(=O)Nc7ccc(N(C)C)nn7)C6)C5)CC4)cn3)nc2n(C2CCCC2)c1=O (stereo not drawn) [CPD-594, 2-((6-(2-(4-((6-((6-acetyl-8-cyclopentyl-5-methyl-7-oxo-7,8-dihydropyrido[2,3-d]pyrimidin-2-yl)amino)pyridin-3-yl)methyl)piperazin-1-yl)-N-methylacetamido)spiro[3.3]heptan-2-yl)amino)-N-(6-(dimethylamino)pyridazin-3-yl)-6-(isopropylamino)nicotinamide]
